# Results: the supplement of paper PMC10307832
# Key:
# Experiment in all cases: relative viability (nuclei count vs DMSO), 5 days (fraction); higher = more cells survive
# [1] = compound: COC1=CC=C(C=C1)CN2C=CC3=C2C=C(C=C3)C(=O)NO + COc1cccc2cc(-c3nc([C@H]4CC[C@H](C(=O)O)CC4)n4ncnc(N)c34)[nH]c12 [OSI-027] (partner 0.5 µM)
# How it was run: (§1)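 Nuclei were stained with Hoechst during a one-step fixation (final 0.05% Triton X-100, 1% formaldehyde, 1 ug/ml Hoechst) carried out 5 days after dosing, then counted on 4× images. The cells, lung cancer lines in 1536-well plates, had been dosed by pin tool the day after seeding with one drug alone or a fixed anchor-drug dose plus five library-drug doses (not always all listed) in √10 steps. Relative viability is the nuclei count in treated wells divided by that in vehicle wells, and each value is the median of duplicate plates.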
# [2] = compound: COC1=CC=C(C=C1)CN2C=CC3=C2C=C(C=C3)C(=O)NO + C[C@]1(O)C[C@@H](c2nc(-c3ccc4ccc(-c5ccccc5)nc4c3)c3c(N)nccn32)C1 [Linsitinib] (partner 1 µM)
# How it was run: as §1
# [3] = compound: COC1=CC=C(C=C1)CN2C=CC3=C2C=C(C=C3)C(=O)NO + N=C(N)NC(=N)NCCc1ccccc1 [Phenformin] (partner 250 µM)
# How it was run: as §1
# Veliparib + Luminespib = compound: C[C@]1(c2nc3c(C(N)=O)cccc3[nH]2)CCCN1 [Veliparib] + CCNC(=O)c1noc(-c2cc(C(C)C)c(O)cc2O)c1-c1ccc(CN2CCOCC2)cc1 [Luminespib] (partner 0.01 µM)
# How it was run: as §1
Cell Line,relative viability ([1]; first compound 0.08 µM),relative viability ([1]; first compound 0.253 µM),relative viability ([1]; first compound 0.8 µM),relative viability ([1]; first compound 2.53 µM),relative viability ([1]; first compound 8 µM),relative viability ([2]; first compound 0.08 µM),relative viability ([2]; first compound 0.253 µM),relative viability ([2]; first compound 0.8 µM),relative viability ([2]; first compound 2.53 µM),relative viability ([2]; first compound 8 µM),relative viability ([3]; first compound 0.08 µM),relative viability ([3]; first compound 0.253 µM),relative viability ([3]; first compound 0.8 µM),relative viability ([3]; first compound 2.53 µM),relative viability ([3]; first compound 8 µM),relative viability (Veliparib + Luminespib; first compound 0.06325 µM),relative viability (Veliparib + Luminespib; first compound 0.2 µM),relative viability (Veliparib + Luminespib; first compound 0.6325 µM),relative viability (Veliparib + Luminespib; first compound 2 µM),relative viability (Veliparib + Luminespib; first compound 0.02 µM)
LC-2-ad,0.793,0.853,0.826,0.979,0.671,0.783,0.851,0.873,0.999,0.804,0.493,0.577,0.561,0.588,0.479,0.947,1.04,0.982,1.03,
LOU-NH91,0.761,0.699,0.729,0.749,0.709,0.74,0.995,1.04,0.954,0.913,0.612,0.678,0.702,0.766,0.637,0.401,0.352,0.285,0.342,0.339
NCI-H1623,0.435,0.727,0.468,0.43,0.376,,,,,,0.396,0.581,0.542,0.616,0.513,0.467,0.596,0.434,0.409,
NCI-H727,0.592,0.576,0.513,0.809,0.534,0.214,0.355,0.298,0.256,0.298,0.603,0.475,0.517,0.534,0.415,0.33,0.364,0.265,0.353,0.442
NCI-H2347,0.479,0.433,0.473,0.481,0.402,0.697,0.918,1.03,0.982,0.877,0.382,0.357,0.415,0.525,0.368,0.54,0.649,0.547,0.427,0.484
NCI-H1993,0.525,0.626,0.53,0.571,0.521,0.738,0.783,0.785,0.759,0.741,0.512,0.571,0.445,0.477,0.457,0.675,0.968,0.64,0.895,0.713
HCC-827,0.766,0.712,0.81,0.791,0.761,0.994,0.94,0.942,0.981,0.883,0.427,0.382,0.386,0.417,0.394,0.692,0.654,0.493,0.588,0.468
NCI-H1975,0.724,0.703,0.742,0.723,0.638,0.929,1.07,0.956,0.931,0.863,0.442,0.417,0.431,0.407,0.399,0.233,0.142,0.31,0.18,0.118
NCI-H1793,,0.296,0.267,0.328,0.248,0.934,0.941,1.09,0.976,0.86,,0.457,0.438,0.414,0.368,0.174,0.177,0.169,0.181,0.196
NCI-H1651,0.682,0.764,0.758,0.622,0.627,0.939,1.01,1.08,0.869,0.716,0.349,0.302,0.39,0.325,0.275,0.806,0.88,0.486,0.651,0.724
NCI-H1755,0.632,0.746,0.732,0.732,0.708,0.955,0.987,1,1.04,1.02,0.595,0.678,0.636,0.637,0.61,0.553,0.41,0.357,0.36,0.551
LCLC-103H,0.441,0.529,0.534,0.388,0.397,1.03,1.13,0.991,1.07,1.02,0.339,0.339,0.398,0.347,0.287,0.888,1.04,0.907,0.992,0.987
NCI-H1915,0.564,0.656,0.643,0.599,0.532,1.05,1.1,1.07,1.09,1.09,0.348,0.38,0.378,0.359,0.348,0.6,0.647,0.553,0.596,0.799
HOP-62,0.729,0.888,0.909,0.871,0.758,0.681,1.06,1.01,0.924,1.04,0.583,0.658,0.696,0.643,0.623,0.858,0.783,0.669,0.836,0.831
HARA,,0.522,0.535,0.553,0.42,0.126,1.01,1.01,1.07,0.962,,0.455,0.511,0.43,0.317,0.778,0.782,0.639,0.416,0.82
NCI-H520,0.218,0.278,0.329,0.319,0.279,0.313,1.04,1.01,0.977,0.946,,0.618,0.645,0.703,0.503,0.239,0.221,0.205,0.247,0.224
NCI-H1395,0.562,0.579,0.628,0.667,0.549,0.773,1.28,1.11,1.08,0.918,0.37,0.463,0.469,0.407,0.413,0.624,0.648,0.659,0.542,0.586
NCI-H1792,0.722,0.811,0.745,0.802,0.616,0.535,0.62,0.636,0.539,0.425,0.455,0.358,0.29,0.19,0.129,0.361,0.508,0.429,0.331,0.509
EKVX,0.669,0.653,0.72,0.72,0.64,0.825,1.07,1.06,1.12,1.03,0.192,0.239,0.264,0.225,0.219,0.835,0.89,0.812,0.827,0.82
CAL-12T,0.723,0.643,0.563,0.71,0.642,0.695,0.917,0.756,0.76,0.786,0.643,0.563,0.589,0.581,0.493,0.147,0.522,0.266,0.155,0.348

Cell Line,relative viability ([1]; first compound 0.08 µM),relative viability ([1]; first compound 0.253 µM),relative viability ([1]; first compound 0.8 µM),relative viability ([1]; first compound 2.53 µM),relative viability ([1]; first compound 8 µM),relative viability ([2]; first compound 0.08 µM),relative viability ([2]; first compound 0.253 µM),relative viability ([2]; first compound 0.8 µM),relative viability ([2]; first compound 2.53 µM),relative viability ([2]; first compound 8 µM),relative viability ([3]; first compound 0.08 µM),relative viability ([3]; first compound 0.253 µM),relative viability ([3]; first compound 0.8 µM),relative viability ([3]; first compound 2.53 µM),relative viability ([3]; first compound 8 µM),relative viability (Veliparib + Luminespib; first compound 0.06325 µM),relative viability (Veliparib + Luminespib; first compound 0.2 µM),relative viability (Veliparib + Luminespib; first compound 0.6325 µM),relative viability (Veliparib + Luminespib; first compound 2 µM),relative viability (Veliparib + Luminespib; first compound 0.02 µM)
SW 900,0.559,0.533,0.63,0.622,0.447,,,,,,0.643,0.652,0.593,0.512,0.339,,0.204,0.19,0.118,
NCI-H1734,,0.641,0.558,0.608,0.527,,0.953,0.871,0.93,0.855,,0.413,0.386,0.392,0.383,0.209,0.211,0.232,0.233,0.197
NCI-H522,,0.611,0.746,0.733,0.718,,,,,,,0.591,0.614,0.654,0.651,1.21,1.16,1.18,1.25,1.18
A549,,,,,,,0.678,0.595,0.697,0.558,,0.159,0.173,0.188,0.0674,,,,,
BEN,0.27,0.296,0.288,0.318,0.291,0.87,0.875,0.904,0.869,0.907,0.267,0.224,0.263,0.269,0.259,0.188,0.308,0.557,0.148,0.161
NCI-H2126,0.685,0.775,0.696,0.797,0.743,0.735,0.754,0.686,0.737,0.727,0.516,0.52,0.544,0.584,0.517,0.908,0.839,0.901,0.95,0.875
NCI-H1563,0.626,0.812,0.739,0.724,0.712,1.1,1.18,1.26,1.18,1.12,0.622,0.676,0.671,0.664,0.534,0.536,0.526,0.49,0.535,0.484
NCI-H2023,0.369,0.406,0.418,0.372,0.344,0.576,0.645,0.64,0.7,0.637,0.38,0.409,0.383,0.392,0.299,0.738,0.696,0.73,0.73,0.746
EBC-1,,,,,,,0.883,0.941,0.907,0.768,,,,,,,,,,
IA-LM,,,,,,0.613,0.587,0.492,0.698,0.663,,,,,,,,,,
NCI-H1648,0.246,0.245,0.246,0.262,0.246,,,,,,,,,,,,,,,
NCI-H1703,,,,,,,0.783,1.09,0.69,1.16,,,,,,,,,,
NCI-H2342,0.61,0.66,0.603,0.57,0.655,,,,,,0.588,0.511,0.48,0.453,0.409,0.729,0.594,0.972,0.666,0.687
NCI-H1299,,,,,,0.952,0.976,0.994,0.977,0.959,,,,,,,,,,
ChaGo-K-1,,0.623,0.675,0.504,0.378,,,,,,,0.539,0.484,0.438,0.374,0.655,0.648,0.525,0.596,0.44
NCI-H1650,0.586,0.682,0.714,0.568,0.542,,,,,,0.4,0.447,0.422,0.334,0.204,0.216,0.194,0.199,0.217,
HCC-366,0.486,1.03,0.978,0.896,0.772,,0.98,0.636,0.673,0.696,0.633,0.624,0.634,0.599,0.532,,,,,
NCI-H2170,0.708,0.725,0.8,0.81,0.609,,,,,,0.407,0.396,0.411,0.419,0.381,0.865,0.719,0.732,0.6,0.681
HCC-78,0.4,0.344,0.341,0.355,0.366,,0.542,0.537,0.491,0.453,0.62,0.63,0.718,0.818,0.65,,,,,
Calu-6,,,,,,,0.961,0.949,0.906,0.902,,,,,,,,,,
